Earlier results, collected in US20250114486A1, “MARKED FATTY ACID DERIVATIVE, PRECURSOR COMPOUND THEREOF, AND USE THEREOF IN CONTRAST AGENT” (BEIJING NORMAL UNIVERSITY, priority 2022, published 2025).
Like-named read-outs stand apart in the source and are kept apart here.

Settings: rats, reference 4, cited from earlier work

Q: For `CC(CCCCCCCCCCCCc1ccc([123I])cc1)CC(=O)O` (centres unmarked) [[^123I]BMIPP], which Heart-to-Lungs ratio (30 min after injection) is on record?
A: Its Heart-to-Lungs ratio is 3.16.

Q: And the Heart-to-Blood ratio (30 min post-injection)?
A: Its Heart-to-Blood ratio is 2.27.

Q: What about the “absolute myocardial uptake value” (30 min post-injection) of the same molecule?
A: The value was 3.63 % ID/g.

Q: What about the Heart-to-Liver ratio (60 min after injection) of the same molecule?
A: Its Heart-to-Liver ratio is 2.22.

Q: What about the Heart-to-Lungs ratio (60 min after injection) of the same molecule?
A: The Heart-to-Lungs ratio was 3.52.

Q: And the Heart-to-Blood ratio (60 min post-injection)?
A: Its Heart-to-Blood ratio is 2.51.

Q: What about the “absolute myocardial uptake value” (60 min post-injection) of the same molecule?
A: The value was 4.26 % ID/g.

Q: And the Heart-to-Liver ratio (240 min after injection)?
A: Its Heart-to-Liver ratio is 2.39.

Q: And the Heart-to-Lungs ratio (240 min after injection)?
A: Its Heart-to-Lungs ratio is 2.49.

Q: And the Heart-to-Blood ratio (240 min post-injection)?
A: The Heart-to-Blood ratio was 2.01.

Q: What about the “absolute myocardial uptake value” (240 min post-injection) of the same molecule?
A: The value was 2.27 % ID/g.
